From patent publication US20240343747A1, “Heteroaryl compounds as inhibitors of TYK2, composition and application thereof” (Accro Bioscience (HK) Limited, priority 2021, published 2024)

How the values were obtained:
[1] = target: TYK2 JH2 (Homo sapiens (Human), UniProt P29597); assay: Competitive binding assay (kinase-tagged phage, qPCR), TYK2 JH2
Protocol: (§1) For most assays, kinase-tagged T7 phage strains were prepared in an E. coli host derived from the BL21 strain. E. coli were grown to log-phase and infected with T7 phage and incubated with shaking at 32° C. until lysis. The lysates were centrifuged and filtered to remove cell debris. The remaining kinases were produced in HEK-293 cells and subsequently tagged with DNA for qPCR detection. Streptavidin coated magnetic beads were treated with biotinylated small molecule ligands for 30 minutes at room temperature to generate affinity resins for kinase assays. The liganded beads were blocked with excess biotin and washed with blocking buffer (SeaBlock (Pierce), 1% BSA, 0.05% Tween 20, 1 mM DTT) to remove unbound ligand and to reduce non-specific binding. […] Test compounds were prepared as 111X stocks in 100% DMSO. Dissociation constants (Kds) were determined using an 11-point 3-fold compound dilution series with three DMSO control points. All compounds for Kd measurements are distributed by acoustic transfer (non-contact dispensing) in 100% DMSO. The compounds were then diluted directly into the assays such that the final concentration of DMSO was 0.9%. All reactions performed in polypropylene 384-well plate. Each was a final volume of 0.02 ml. The assay plates were incubated at room temperature with shaking for 1 hour and the affinity beads were washed with wash buffer (1×PBS, 0.05% Tween 20). The beads were then re-suspended in elution buffer (1×PBS, 0.05% Tween 20, 0.5 μM nonbiotinylated affinity ligand) and incubated at room temperature with shaking for 30 minutes. The kinase concentration in the eluates was measured by qPCR.
(§2) An 11-point 3-fold serial dilution of each test compound was prepared in 100% DMSO at 100× final test concentration and subsequently diluted to 1× in the assay (final DMSO concentration=1%). Most Kds were determined using a compound top concentration=30,000 nM. If the initial Kd determined was <0.5 nM (the lowest concentration tested), the measurement was repeated with a serial dilution starting at a lower top concentration.
(§3) Binding constants (Kds) were calculated with a standard dose-response curve using the Hill equation: […]
(§4) The Hill Slope was set to −1.
(§5) Curves were fitted using a non-linear least square fit with the Levenberg-Marquardt algorithm.

[2] = target: JAK1 JH1 (Homo sapiens (Human), UniProt P23458); assay: Competitive binding assay (kinase-tagged phage, qPCR), JAK1 JH1
Chain of JAK1 JH1 (P23458 875-1153): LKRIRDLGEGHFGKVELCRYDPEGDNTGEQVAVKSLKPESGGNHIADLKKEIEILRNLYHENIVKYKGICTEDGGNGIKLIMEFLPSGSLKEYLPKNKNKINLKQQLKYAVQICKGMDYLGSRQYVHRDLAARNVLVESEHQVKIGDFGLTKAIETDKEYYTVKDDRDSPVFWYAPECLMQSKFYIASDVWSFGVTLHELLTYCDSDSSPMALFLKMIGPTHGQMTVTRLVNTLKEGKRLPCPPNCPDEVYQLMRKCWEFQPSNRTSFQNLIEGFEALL
Protocol: as §1, §2, §3, §4, §5

[3] = target: TYK2 (Mus musculus (Mouse), UniProt Q9R117); assay: Luciferase assay in L929 ISRE cells stimulated with IFN-α; format: cell-based; details: IFN-α 100 ng/mL; for inhibition at 1 µM: read-out: Inhibitory activity % (1000 nM)
Chain of TYK2 (Q9R117 whole entry): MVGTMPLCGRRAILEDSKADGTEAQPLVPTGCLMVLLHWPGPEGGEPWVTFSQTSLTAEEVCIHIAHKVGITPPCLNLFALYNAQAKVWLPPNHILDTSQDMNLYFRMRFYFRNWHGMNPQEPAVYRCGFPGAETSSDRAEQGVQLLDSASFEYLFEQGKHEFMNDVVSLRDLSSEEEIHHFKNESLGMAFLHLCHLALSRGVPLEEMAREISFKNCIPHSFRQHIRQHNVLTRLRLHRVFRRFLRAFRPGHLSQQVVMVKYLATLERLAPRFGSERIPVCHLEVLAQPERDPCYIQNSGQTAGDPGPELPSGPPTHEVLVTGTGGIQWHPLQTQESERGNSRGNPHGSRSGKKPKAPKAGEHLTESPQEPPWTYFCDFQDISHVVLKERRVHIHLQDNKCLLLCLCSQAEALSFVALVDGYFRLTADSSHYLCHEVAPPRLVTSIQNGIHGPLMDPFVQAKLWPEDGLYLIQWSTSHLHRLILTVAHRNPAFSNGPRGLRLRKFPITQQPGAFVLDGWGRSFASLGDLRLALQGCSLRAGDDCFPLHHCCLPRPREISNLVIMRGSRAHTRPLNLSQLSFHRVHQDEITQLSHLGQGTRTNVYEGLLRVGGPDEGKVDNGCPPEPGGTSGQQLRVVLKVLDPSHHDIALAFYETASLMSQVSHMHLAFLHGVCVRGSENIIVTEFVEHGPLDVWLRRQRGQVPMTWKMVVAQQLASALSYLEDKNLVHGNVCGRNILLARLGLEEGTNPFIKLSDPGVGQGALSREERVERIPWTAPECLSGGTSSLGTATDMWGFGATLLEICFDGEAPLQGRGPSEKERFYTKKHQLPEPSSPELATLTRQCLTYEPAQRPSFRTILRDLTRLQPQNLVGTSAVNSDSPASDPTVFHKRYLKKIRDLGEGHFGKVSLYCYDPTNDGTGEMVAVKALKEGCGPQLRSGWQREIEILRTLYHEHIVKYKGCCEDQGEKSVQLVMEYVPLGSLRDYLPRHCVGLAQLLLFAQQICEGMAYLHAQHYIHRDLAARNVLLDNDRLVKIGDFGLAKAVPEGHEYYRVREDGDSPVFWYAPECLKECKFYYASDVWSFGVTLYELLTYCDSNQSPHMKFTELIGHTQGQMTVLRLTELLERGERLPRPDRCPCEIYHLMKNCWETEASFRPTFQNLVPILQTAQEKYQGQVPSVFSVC
Protocol: • 1. L929 ISRE cells (5000 cells/well) were seeded on 96-well plates and incubated overnight at room temperature; • 2. The cells were pretreated by adding different concentrations (10 nM, 50 nM, 100 nM, 200 nM or 1000 nM) of the test compounds for 2 hours; • 3. Added IFN-α (100 ng/mL) to stimulate cells for 6 hours; • 4. Removed the upper medium, add PBS (100 μL) and washed, then removed PBS; • 5. Added PLB lysis solution (50 μL) to each well, shook the well for 15 minutes; • 6. Transferred PLB lysis solution (30 μL) to a new 96-well whiteboard, added LAR II reagent (LAR II), then quickly read the […]; • 7. Added Stop & Glo reagent (30 μL), then read the 450 nm OD value using the plate washer. • 8. The final results in Table 3 were the OD value in step 6/OD value in step 7.

[4] = target: hERG channel (Homo sapiens (Human), UniProt Q12809); assay: in vitro; details: human
Chain of hERG channel (Q12809 whole entry): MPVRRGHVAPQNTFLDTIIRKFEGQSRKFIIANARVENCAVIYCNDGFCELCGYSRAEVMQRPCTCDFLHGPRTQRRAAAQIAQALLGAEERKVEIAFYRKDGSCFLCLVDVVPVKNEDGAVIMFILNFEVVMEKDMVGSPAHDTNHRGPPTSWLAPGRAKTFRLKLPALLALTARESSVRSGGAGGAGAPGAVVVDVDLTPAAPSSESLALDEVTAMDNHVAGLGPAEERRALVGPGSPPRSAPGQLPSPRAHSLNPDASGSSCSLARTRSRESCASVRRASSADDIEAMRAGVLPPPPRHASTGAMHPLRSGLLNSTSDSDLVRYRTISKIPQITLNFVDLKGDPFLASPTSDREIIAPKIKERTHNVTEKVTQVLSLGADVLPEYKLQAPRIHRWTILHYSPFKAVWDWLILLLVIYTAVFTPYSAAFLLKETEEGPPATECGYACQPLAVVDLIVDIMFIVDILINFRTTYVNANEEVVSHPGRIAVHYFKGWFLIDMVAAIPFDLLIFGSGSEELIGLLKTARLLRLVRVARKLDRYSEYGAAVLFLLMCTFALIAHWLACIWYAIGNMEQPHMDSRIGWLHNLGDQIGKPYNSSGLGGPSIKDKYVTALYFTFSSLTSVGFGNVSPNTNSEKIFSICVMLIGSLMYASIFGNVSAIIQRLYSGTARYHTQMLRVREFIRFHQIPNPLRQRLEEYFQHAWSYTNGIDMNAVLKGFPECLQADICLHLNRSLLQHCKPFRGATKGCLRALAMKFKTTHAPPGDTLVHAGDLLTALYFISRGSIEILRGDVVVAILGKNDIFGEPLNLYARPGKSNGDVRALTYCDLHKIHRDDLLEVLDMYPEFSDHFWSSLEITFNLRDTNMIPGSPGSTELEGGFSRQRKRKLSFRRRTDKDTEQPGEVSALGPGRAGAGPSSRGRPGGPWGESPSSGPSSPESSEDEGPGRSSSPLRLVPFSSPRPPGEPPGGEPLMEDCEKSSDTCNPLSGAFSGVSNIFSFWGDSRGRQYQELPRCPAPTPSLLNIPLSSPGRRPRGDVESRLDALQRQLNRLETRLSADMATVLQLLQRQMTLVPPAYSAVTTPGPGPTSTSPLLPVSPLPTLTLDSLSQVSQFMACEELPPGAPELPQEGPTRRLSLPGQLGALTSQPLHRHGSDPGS
Protocol: Chinese hamster ovary (CHO) cell line, CHO-hERG cells were used in this study. CHO-hERG cells were derived from Sophion Biosciences Inc. (Ballerup, Denmark) in Suzhou, China. The cell reserve fluid is frozen in liquid nitrogen tanks. Each batch of stored cell fluid is tested for mycoplasma contamination. The cells were no longer used after 30 generations.
The whole cell patch clamp technique was used to record hERG current at room temperature. The patch-clamp amplifier outputs signals through […] conversion and 2.9 KHz low-pass filtering. Data records were collected by Patchmaster Pro software.
Cells were planted in a cell recording tank and placed on an inverted microscope platform. One cell in the recording tank was randomly selected for experiment. The perfusion system was fixed on an inverted microscope platform and cells were continuously irrigated with ECS.
Manual patch clamp recording microelectrode was prepared with capillary glass tube, which was filled with intracellular fluid. On the day of the patch clamp test, the electrodes were prepared using a borosilicate glass tube (GC150TF-10, Harvard Apparatus Co. UK). The resistance is between 2-5 MΩ after the electrode is filled with ICS.
The clamping voltage was −80 mV, and the first step was depolarized to +60 mV for 850 ms to open the hERG channel. The voltage is then set to −50 mV and maintained for 1275 ms, resulting in a rebound current or tail current, the peak of which is measured and used for analysis. Finally, the voltage is restored to the clamping voltage (−80 mV). During the test, the command voltage program was repeated every 15 s.
At the beginning of recording the perfusion of the solvent control working solution, the test substance/positive control working solution to be tested can be poured after monitoring the tail current peak until more than 3 scanning curves are stable, until the inhibition of the test substance/positive control working solution to the hERG current peak reaches a stable state. Generally, the most recent three consecutive peak values of the current curve basically coincide as a criterion to judge whether the state is stable. After reaching a stable state, continue to pour one concentration of the test sample. One or more test subjects/positive controls, or multiple concentrations of the same drug, can be tested on a cell, and the different test subjects/positive controls need to be rinsed with a solvent control working fluid until the hERG current returns to more than 80% of its pre-drug level.
The concentration of positive control cisapride was 0.1 μM, and two cells were repeated.

[5] = test system: JAK1/JAK3 pathway; assay: Selectivity: JAK1/JAK3 pathway, IL-2-induced p-STAT5 in human PBMC, western blot; format: cell-based; details: IL-2 100 ng/mL
Protocol: Commercial human PBMC (peripheral blood mononuclear cells) were centrifuged (400 g) for 10 min, counted and seeded into 6-well plates (5 million/well). The compounds to be tested were added for 2 hours and then IL-2 (100 ng/mL) was added to stimulate cells for 15 minutes. Finally, p-STAT5/STAT5 and internal reference protein β-actin were detected by Western blot.

[6] = test system: JAK2/JAK2 pathway; assay: Selectivity: JAK2/JAK2 pathway, TPO-induced p-STAT3 in MEG-1 cells, western blot; format: cell-based; details: TPO 100 ng/mL
Protocol: MEG-1 cells were digested by trypsin, re-suspended in 1640 medium and counted. The compounds to be measured were added to 6 well plates (1 million/per well) for 2 hours, and then TPO (final concentration: 100 ng/mL) was added to stimulate cells for 30 minutes. The cells were collected and lysed with protein lysate. The protein was quantitatively tested by BCA kit. Finally, p-STAT3/STAT3 and internal reference protein β-actin were detected by western blot.

[7] = test system: IL-23 induced psoriasis; assay: IL-23 induced psoriasis in mice (ear thickness); format: in vivo; details: oral gavage twice a day, 14 days, B41 10 and 30 mg/kg, BMS986165 10 mg/kg
Protocol: Recombinant human IL-23 (100 ng/time/mouse) was injected into the right ear of mice every two days starting from day 1 of the study. The administration group included 7 mice, with EtOH:TPGS:PEG300=[…] as vehicle, compound B41 (10 mg/kg, 30 mg/kg) or BMS986165 (10 mg/kg) orally gavage twice a day the night before the first injection of IL-23. The control group was injected with vehicle alone. The experiment lasted for 14 days. The thickness of the ear was measured with a micrometer every two days.

[8] = test system: JAK1/JAK2 pathway; assay: Selectivity: JAK1/JAK2 pathway, IFN-γ-induced p-STAT1 in HT-29 cells, western blot; format: cell-based; details: IFN-γ 100 ng/mL
Protocol: HT-29 cells were digested by trypsin and suspended in DMEM medium and counted. The tested compounds were added into 6 well plates (400 000/per well) for 2 hours, then IFN-γ (100 ng/mL) was added to stimulate cells for 30 minutes. The cells were collected and lysed with protein lysate. The protein was quantitatively tested by BCA kit. Finally, p-STAT1/STAT1 and internal reference protein β-actin were detected by western blot.

[9] = test system: production of CXCL-10 stimulated by IFNα in PBMC; assay: ELISA: production of CXCL-10 stimulated by IFNα in PBMC; format: cell-based; details: CXCL-10 production stimulated by IFNα in PBMC, ELISA
Protocol: • 1. Soak plate: Add 300 μL 1×washing solution and let stand for 30 seconds. After discarding the washing solution, dry the microporous plate on absorbent paper. • 2. Add standard: Add 100 μL of 2-fold standard to standard well. Add 100 μL standard dilution (serum/plasma sample) or culture medium (cell culture supernatant sample) to blank well. • 3. Add sample: Serum/plasma: Add 50 μL 1×assay buffer and 50 μL sample to sample well. Cell culture supernatant: Add 100 μL cell culture supernatant to sample well. • 4. Add detection antibody: Add 50 μL diluted detection antibody (1:100 diluted) to each well. Make sure steps 4, 5 and 6 are added continuously without interruption. The sampling process was completed within 15 minutes. • 5. Incubation: Use sealing plate film to seal the plate. shake at 300 rpm and incubate for 2 hours at room temperature. • 6. Washing: Discard the liquid, add 300 μL of washing solution and wash the plate 6 times. pat dry on blotting paper after each wash. To obtain the desired experimental performance, the residual liquid must be completely removed. • 7. Enzyme addition: Add 100 μL diluted horseradish peroxidase labeled streptavidin to each well (1:100 diluted). • 8. Incubation: Seal the plate with a new sealing film. shake at 300 rpm and incubate at room temperature for 45 minutes. • 9. Washing. Repeat step […]. • 10. Add substrate for color development: Add 100 μL of color development substrate TMB to each well, keep away from light, and incubate at room temperature for 5-30 minutes. • 11. Add Stop Solution: Add 100 μL stop solution to each well. The color changed from blue to yellow. If the color appears green or the color changes unevenly, gently tap the frame of the plate to mix well. • 12. Assay readout: Within 30 minutes, perform dual wavelength detection using a microplate reader to measure the OD at the absorption maximum at 450 nm and reference wavelengths at 570 nm or 630 nm. The calibrated OD value is the measured value at 450 nm minus the measured value at 570 nm or 630 nm.

[10] = target: JAK2 JH1 (Homo sapiens (Human), UniProt O60674); assay: Competitive binding assay (kinase-tagged phage, qPCR), JAK2 JH1
Chain of JAK2 JH1 (O60674 849-1124): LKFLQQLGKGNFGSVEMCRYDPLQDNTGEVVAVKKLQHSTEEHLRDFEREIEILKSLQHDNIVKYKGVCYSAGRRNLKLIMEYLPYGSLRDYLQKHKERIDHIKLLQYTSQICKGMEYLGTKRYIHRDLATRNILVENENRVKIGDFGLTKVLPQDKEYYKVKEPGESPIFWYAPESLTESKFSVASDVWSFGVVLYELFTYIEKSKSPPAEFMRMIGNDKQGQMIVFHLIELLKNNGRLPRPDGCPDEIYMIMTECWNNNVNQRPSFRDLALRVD
Protocol: For most assays, kinase-tagged T7 phage strains were prepared in an E. coli host derived from the BL21 strain. E. coli were grown to log-phase and infected with T7 phage and incubated with shaking at 32° C. until lysis. The lysates were centrifuged and filtered to remove cell debris. The remaining kinases were produced in HEK-293 cells and subsequently tagged with DNA for qPCR detection. Streptavidin coated magnetic beads were treated with biotinylated small molecule ligands for 30 minutes at room temperature to generate affinity resins for kinase assays. The liganded beads were blocked with excess biotin and washed with blocking buffer (SeaBlock (Pierce), 1% BSA, 0.05% Tween 20, 1 mM DTT) to remove unbound ligand and to reduce non-specific binding. […] Test compounds were prepared as 111X stocks in 100% DMSO. Dissociation constants (Kds) were determined using an 11-point 3-fold compound dilution series with three DMSO control points. […] The kinase concentration in the eluates was measured by qPCR.
An 11-point 3-fold serial dilution of each test compound was prepared in 100% DMSO at 100× final test concentration and subsequently diluted to 1× in the assay (final DMSO concentration=1%). Most Kds were determined using a compound top concentration=30,000 nM. […]
as §3

[11] = test system: TYK2/JAK1 pathway; assay: Selectivity: TYK2/JAK1 pathway, IFN-α-induced p-STAT1 in human PBMC, western blot; format: cell-based; details: IFN-α 100 ng/mL, western blot
Protocol: Commercial human PBMC (peripheral blood mononuclear cells) were centrifuged (400 g) for 10 min, counted and planted on 6-well plates (5 million/well). Then, the compounds to be tested were added for 2 hours and IFN-α (100 ng/mL) was added to stimulate cells for 15 minutes. Protein lysate was used to lysate cells, and BCA kit was used for protein quantification. Finally, p-STAT1/STAT1, P-TYK2/TYK2 and internal reference protein B-Actin were detected by Western blot.

Chain of TYK2 JH2 (P29597 589-875): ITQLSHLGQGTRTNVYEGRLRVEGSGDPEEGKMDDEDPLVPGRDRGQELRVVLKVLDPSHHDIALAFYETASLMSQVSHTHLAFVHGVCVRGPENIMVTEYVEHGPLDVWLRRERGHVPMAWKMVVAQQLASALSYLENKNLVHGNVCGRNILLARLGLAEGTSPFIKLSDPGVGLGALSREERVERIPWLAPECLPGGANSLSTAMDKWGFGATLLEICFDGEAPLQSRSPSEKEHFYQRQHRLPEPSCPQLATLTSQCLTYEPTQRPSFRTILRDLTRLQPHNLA

Row | Compound | Kd [1] | Kd [2] | inhibition at 1 µM ([3]; 1000 nM) | other results
1 | CCC(=O)c1cnc(NC(=O)C2CC2)cc1Nc1cccc(-c2ncc(P(C)(C)=O)cn2)c1OC [Compound B11] | 0.016 nM | > 30000 nM | 62% | 
2 | COc1cc(N)c(Cl)cc1C(=O)NC1CCN(CCCOc2ccc(F)cc2)CC1OC (stereo not drawn) [Cisapride, reference compound] |  |  |  | inhibition at 0.1 µM [4]: > 50%
3 | CCC(=O)c1cnc(NC(=O)C2CC2)cc1Nc1cccc(-c2cnc(P(C)(C)=O)cn2)c1OC [Compound B5] | 0.095 nM | > 30000 nM | 80% | 
4 | BMS986165 [reference compound] |  |  |  | effect on IL-2-induced downstream STAT5 phosphorylation [5]: no effect; effect on TPO-induced downstream STAT3 phosphorylation [6]: no effect; efficacy in IL-23 induced psoriasis (ear thickness) [7]: effectively inhibit and treat; effect on downstream STAT1 phosphorylation induced by IFN-γ [8]: no effect; IC50 [9]: 56.8 nM; Inhibitory activity % (50 nM) ([3]; 50 nM): 74%; Inhibitory activity % (200 nM) ([3]; 200 nM): 89%; Inhibitory activity % (1000 nM) ([3]; 1000 nM): 96%
5 | CCC(=O)c1cnc(NC(=O)C2CC2)cc1Nc1cccc(-c2ccc(P(C)(C)=O)cc2)c1OC [Compound B3] | 0.4 nM | > 30000 nM | 88% | inhibition at 0.01 µM ([3]; 10 nM, read-out: Inhibitory activity % (10 nM)): 21%; inhibition at 0.1 µM ([3]; 100 nM, read-out: Inhibitory activity % (100 nM)): 46%
6 | N#CC[C@H](C1CCCC1)n1cc(-c2ncnc3[nH]ccc23)cn1 [Ruxolitinib, reference compound] |  |  |  | effect on TPO-induced downstream STAT3 phosphorylation [6]: could inhibit JAK2/JAK2 pathway
7 | CCC(=O)c1cnc(NC(=O)C2CC2)cc1Nc1nccc(-c2cc(P(=O)(C3CC3)C3CC3)n(C)n2)c1OC [Compound B38] | 0.0079 nM | > 30000 nM | 95% | Kd [10]: 11000 nM; IC50 [9]: 222 nM; inhibition of downstream STAT1 phosphorylation induced by IFN-α [11]: effectively inhibit
8 | CCC(=O)c1cnc(NC(=O)C2CC2)cc1Nc1cccc(-c2ccc(P(C)(C)=O)cn2)c1OC [Compound B4] | 0.032 nM | > 30000 nM | 58% | 
